Legend:
Brain = assay: Drug uptake in mouse brain at 1 mg/kg, iv; format: ADME, organism-based; set-up: dose 1 mg/kg, route intravenous; conditions: in vivo
[1] = molecular target: T1, Leucine-rich repeat serine/threonine-protein kinase 2 (Homo sapiens, UniProt Q5S007, G2019S); assay: Inhibition of human recombinant LRRK2 G2019S mutant using biotin-LRRKtide as substrate preincubated for 15 mins prior to substrate addition measured after 60 mins by TR-FRET assay
[2] = molecular target: Leucine-rich repeat serine/threonine-protein kinase 2 (Homo sapiens, UniProt Q5S007); assay: Inhibition of human recombinant wild type LRRK2 using biotin-LRRKtide as substrate preincubated for 15 mins prior to substrate addition measured after 60 mins by TR-FRET assay
[3] = molecular target: T1, Leucine-rich repeat serine/threonine-protein kinase 2; assay: Inhibition of GST-tagged LRRK2 (1326 to 2527 amino acids) G2019S mutant (unknown origin)

T1 sequence (Q5S007 whole entry G2019S): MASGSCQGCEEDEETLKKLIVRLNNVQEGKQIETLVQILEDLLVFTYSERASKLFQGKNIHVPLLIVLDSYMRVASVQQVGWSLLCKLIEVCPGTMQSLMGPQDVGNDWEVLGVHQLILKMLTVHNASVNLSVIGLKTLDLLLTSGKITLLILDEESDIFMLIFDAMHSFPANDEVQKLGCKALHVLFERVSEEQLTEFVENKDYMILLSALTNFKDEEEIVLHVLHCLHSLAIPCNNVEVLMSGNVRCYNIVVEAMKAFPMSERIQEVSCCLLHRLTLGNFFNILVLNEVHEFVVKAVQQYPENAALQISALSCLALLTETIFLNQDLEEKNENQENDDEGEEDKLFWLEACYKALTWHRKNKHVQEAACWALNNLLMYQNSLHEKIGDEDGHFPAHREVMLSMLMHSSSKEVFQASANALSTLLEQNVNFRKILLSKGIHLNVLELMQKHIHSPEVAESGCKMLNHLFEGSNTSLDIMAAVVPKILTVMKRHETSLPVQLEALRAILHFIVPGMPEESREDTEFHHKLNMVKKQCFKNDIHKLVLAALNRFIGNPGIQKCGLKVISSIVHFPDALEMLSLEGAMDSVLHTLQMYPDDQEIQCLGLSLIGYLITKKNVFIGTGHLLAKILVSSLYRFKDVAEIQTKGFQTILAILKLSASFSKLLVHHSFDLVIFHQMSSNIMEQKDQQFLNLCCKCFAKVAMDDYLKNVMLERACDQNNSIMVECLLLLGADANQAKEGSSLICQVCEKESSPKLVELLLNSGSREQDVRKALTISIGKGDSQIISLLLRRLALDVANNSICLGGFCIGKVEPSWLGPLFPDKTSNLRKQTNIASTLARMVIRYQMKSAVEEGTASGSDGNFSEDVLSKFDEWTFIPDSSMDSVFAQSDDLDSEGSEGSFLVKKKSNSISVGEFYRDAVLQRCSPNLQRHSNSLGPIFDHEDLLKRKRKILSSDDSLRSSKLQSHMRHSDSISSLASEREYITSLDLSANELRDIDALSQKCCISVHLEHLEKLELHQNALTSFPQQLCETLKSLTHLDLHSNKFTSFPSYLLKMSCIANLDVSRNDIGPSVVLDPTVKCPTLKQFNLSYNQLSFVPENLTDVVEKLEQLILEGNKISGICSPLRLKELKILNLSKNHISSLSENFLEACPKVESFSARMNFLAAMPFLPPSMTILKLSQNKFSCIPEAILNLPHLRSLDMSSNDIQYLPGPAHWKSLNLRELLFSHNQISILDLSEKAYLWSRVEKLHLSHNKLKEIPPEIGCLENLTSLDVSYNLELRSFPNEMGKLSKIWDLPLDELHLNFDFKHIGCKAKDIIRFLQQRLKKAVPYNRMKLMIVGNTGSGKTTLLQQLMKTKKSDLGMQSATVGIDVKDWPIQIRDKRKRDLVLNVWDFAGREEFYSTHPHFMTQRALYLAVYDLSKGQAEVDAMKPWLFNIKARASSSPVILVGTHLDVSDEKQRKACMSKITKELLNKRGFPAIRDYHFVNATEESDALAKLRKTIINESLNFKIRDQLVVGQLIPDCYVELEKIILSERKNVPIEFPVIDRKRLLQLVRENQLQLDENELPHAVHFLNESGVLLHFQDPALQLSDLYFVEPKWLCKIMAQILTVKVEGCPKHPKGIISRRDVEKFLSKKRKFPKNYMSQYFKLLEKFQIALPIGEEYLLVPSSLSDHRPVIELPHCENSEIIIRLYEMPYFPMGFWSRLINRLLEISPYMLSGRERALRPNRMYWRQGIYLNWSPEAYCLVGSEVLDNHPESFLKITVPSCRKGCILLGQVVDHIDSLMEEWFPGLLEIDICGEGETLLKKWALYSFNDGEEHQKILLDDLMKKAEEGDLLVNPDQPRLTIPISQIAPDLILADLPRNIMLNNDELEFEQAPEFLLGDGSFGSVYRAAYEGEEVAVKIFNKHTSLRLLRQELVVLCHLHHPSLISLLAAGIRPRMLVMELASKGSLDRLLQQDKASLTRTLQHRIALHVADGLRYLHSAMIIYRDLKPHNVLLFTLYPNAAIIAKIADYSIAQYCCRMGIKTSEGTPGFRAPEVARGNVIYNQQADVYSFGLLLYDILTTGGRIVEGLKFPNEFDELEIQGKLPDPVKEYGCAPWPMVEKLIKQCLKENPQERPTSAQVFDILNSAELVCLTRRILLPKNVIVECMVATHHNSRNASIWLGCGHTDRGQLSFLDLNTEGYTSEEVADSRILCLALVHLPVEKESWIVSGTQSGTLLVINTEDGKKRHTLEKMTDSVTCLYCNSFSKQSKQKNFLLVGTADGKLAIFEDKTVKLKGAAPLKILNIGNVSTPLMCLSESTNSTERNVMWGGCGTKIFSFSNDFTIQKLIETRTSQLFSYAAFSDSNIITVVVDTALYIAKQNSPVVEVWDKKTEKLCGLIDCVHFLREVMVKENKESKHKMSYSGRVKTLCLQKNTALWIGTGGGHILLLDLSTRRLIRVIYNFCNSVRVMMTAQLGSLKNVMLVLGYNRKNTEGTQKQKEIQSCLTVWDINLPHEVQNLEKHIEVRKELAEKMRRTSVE
Chain of Leucine-rich repeat serine/threonine-protein kinase 2 (Homo sapiens, UniProt Q5S007) (Q5S007 whole entry, the tested form may be a part): as the sequence (Q5S007 whole entry G2019S) above, with S2019G counted along it

Drug uptake (Brain) [%]	IC50 [1] [nM]	Ki [1] [nM]	IC50 [2] [nM]	SMILES	Ki [3] [nM]
4	7	7	4	COc1cc(N2CCOCC2)ccc1Nc1ncc(F)c(Nc2ccccc2NS(C)(=O)=O)n1	–
–	–	–	–	COc1cc(C(=O)N2CCC(N3CCN(C)CC3)CC2)ccc1Nc1ncc2c(n1)N(C)c1ccccc1C(=O)N2C	6

From ChEMBL document CHEMBL2396520, “The development of CNS-active LRRK2 inhibitors using property-directed optimisation” (Bioorg Med Chem Lett, 2013)
